Results: ChEMBL document CHEMBL4627274, “Optimized plant compound with potent anti-biofilm activity across gram-negative species” (Bioorg Med Chem, 2020)
Active and inactive are the calls of the source. The calls are words filed in the database; no cut-off is given here.

Legend:
Burkholderia cepacia = test: Inhibition of swarming motility of Burkholderia cepacia clinical isolates incubated for 16 to 20 hrs; assay type: functional
Pseudomonas aeruginosa [1] = test: Inhibition of swarming motility of Pseudomonas aeruginosa clinical isolates incubated for 16 to 20 hrs; assay type: functional
Escherichia coli [2] = test: Inhibition of swarming motility of Escherichia coli clinical isolates incubated for 16 to 20 hrs; assay type: functional
Pseudomonas aeruginosa [3] = test: Inhibition of swarming motility of Pseudomonas aeruginosa HONKR at 10 ug incubated for 18 to 24 hrs; assay type: functional, organism-based
Salmonella enterica = test: Inhibition of swarming motility of Salmonella enterica clinical isolates incubated for 16 to 20 hrs; assay type: functional
Pseudomonas aeruginosa [4] = test: Potentiation of tobramycin-induced inhibition of swarming motility in Pseudomonas aeruginosa HONKR assessed as reduction in biofilm formation at 0.125 ug/mL; assay type: functional, organism-based
Pseudomonas aeruginosa [5] = test: Inhibition of swarming motility of Pseudomonas aeruginosa HONKR at 16 ug/mL incubated for 16 to 20 hrs relative to control; assay type: functional
Xanthomonas campestris = test: Inhibition of swarming motility of Xanthomonas campestris incubated for 16 to 20 hrs; assay type: functional
Escherichia coli [6] = test: Inhibition of swarming motility of Escherichia coli PY31 at 16 ug/mL incubated for 16 to 20 hrs relative to control; assay type: functional
[7] = test system: Pectobacterium atrosepticum; test: Inhibition of swarming motility of Pectobacterium atrosepticum incubated for 16 to 20 hrs; assay type: functional
Pseudomonas aeruginosa [8] = test: Down regulation of pilY1 expression in swarm plate cultured Pseudomonas aeruginosa PAO1 incubated for 19 to 24 hrs by Western blot analysis; assay type: functional, organism-based
Pseudomonas aeruginosa [9] = test: Down regulation of pilA expression in swarm plate cultured Pseudomonas aeruginosa PAO1 incubated for 19 to 24 hrs by Western blot analysis; assay type: functional, organism-based
M14 = test: Cytotoxicity against human M14 cells assessed as reduction in cell viability at < 10 uM; assay type: cell-based
Escherichia coli [10] = test: Antibiofilm activity against Escherichia coli UTI89 incubated for 2 days at 23 degC followed by 1 day incubation at RT; assay type: functional
Pseudomonas syringae = test: Inhibition of swarming motility of Pseudomonas syringae incubated for 16 to 20 hrs; assay type: functional
Pseudomonas aeruginosa [11] = test: Downregulation of pilX gene expression in Pseudomonas aeruginosa by lacZ reporter gene based beta-galactosidase assay; assay type: functional, organism-based
Pseudomonas aeruginosa [12] = test: Potentiation of colistin-induced inhibition of swarming motility in Pseudomonas aeruginosa HONKR assessed as reduction in biofilm formation at 0.125 ug/mL; assay type: functional, organism-based

| Compound | INH (Burkholderia cepacia) | INH (Pseudomonas aeruginosa [1]) | INH (Escherichia coli [2]) | inhibition (Pseudomonas aeruginosa [3]) | INH (Salmonella enterica) | Activity (Pseudomonas aeruginosa [4]) | inhibition at 16 µg/mL (Pseudomonas aeruginosa [5]) | INH (Xanthomonas campestris) | inhibition at 16 µg/mL (Escherichia coli [6]) | INH [7] | Activity (Pseudomonas aeruginosa [8]) | Activity (Pseudomonas aeruginosa [9]) | Activity (M14) | MBIC50 (Escherichia coli [10]) | INH (Pseudomonas syringae) | Activity (Pseudomonas aeruginosa [11]) | Activity (Pseudomonas aeruginosa [12]) |
| --- | --- | --- | --- | --- | --- | --- | --- | --- | --- | --- | --- | --- | --- | --- | --- | --- | --- |
| NC[C@H]1O[C@H](O[C@H]2[C@H](O)[C@@H](O[C@H]3O[C@H](CO)[C@@H](O)[C@H](N)[C@H]3O)[C@H](N)C[C@@H]2N)[C@H](N)C[C@@H]1O [TOBRAMYCIN] | >64 µg/mL | 4 µg/mL | 16 µg/mL | inactive | 8 µg/mL | – | – | – | – | – | – | – | – | – | – | – | – |
| CC1(C)CC[C@]2(C(=O)O)CC[C@]3(C)C(=CC[C@@H]4[C@@]5(C)Cc6c(n[nH]c6N)C(C)(C)[C@@H]5CC[C@]43C)[C@@H]2C1 | 0.25 µg/mL | 1 µg/mL | 1 µg/mL | – | 1 µg/mL | Active | > 90% | <0.5 µg/mL | > 90% | <0.5 µg/mL | Dose-dependent effect | Dose-dependent effect | Non-Toxic | 4 µg/mL | <0.5 µg/mL | Active | Active |
